Measurements reported in US20230144824A1, “1H-PYRAZOLO[4,3-d]PYRIMIDINE COMPOUNDS AS TOLL-LIKE RECEPTOR 7 (TLR7) AGONISTS” (BRISTOL-MYERS SQUIBB COMPANY, priority 2020, published 2023).

biological target: T1, human TLR7 (Homo sapiens, UniProt Q9NYK1); assay: Human TLR7 agonist activity assay (HEK-Blue TLR7 SEAP reporter); type: cell-based; details: HEK-Blue TLR7 cells, 18 h treatment, average where assay performed multiple times, read-out: hTLR7 Agonism EC50
T1 construct: host or cells: HEK-Blue TLR7 cells (engineered human embryonic kidney cells)
T1 sequence (Q9NYK1 27-1049): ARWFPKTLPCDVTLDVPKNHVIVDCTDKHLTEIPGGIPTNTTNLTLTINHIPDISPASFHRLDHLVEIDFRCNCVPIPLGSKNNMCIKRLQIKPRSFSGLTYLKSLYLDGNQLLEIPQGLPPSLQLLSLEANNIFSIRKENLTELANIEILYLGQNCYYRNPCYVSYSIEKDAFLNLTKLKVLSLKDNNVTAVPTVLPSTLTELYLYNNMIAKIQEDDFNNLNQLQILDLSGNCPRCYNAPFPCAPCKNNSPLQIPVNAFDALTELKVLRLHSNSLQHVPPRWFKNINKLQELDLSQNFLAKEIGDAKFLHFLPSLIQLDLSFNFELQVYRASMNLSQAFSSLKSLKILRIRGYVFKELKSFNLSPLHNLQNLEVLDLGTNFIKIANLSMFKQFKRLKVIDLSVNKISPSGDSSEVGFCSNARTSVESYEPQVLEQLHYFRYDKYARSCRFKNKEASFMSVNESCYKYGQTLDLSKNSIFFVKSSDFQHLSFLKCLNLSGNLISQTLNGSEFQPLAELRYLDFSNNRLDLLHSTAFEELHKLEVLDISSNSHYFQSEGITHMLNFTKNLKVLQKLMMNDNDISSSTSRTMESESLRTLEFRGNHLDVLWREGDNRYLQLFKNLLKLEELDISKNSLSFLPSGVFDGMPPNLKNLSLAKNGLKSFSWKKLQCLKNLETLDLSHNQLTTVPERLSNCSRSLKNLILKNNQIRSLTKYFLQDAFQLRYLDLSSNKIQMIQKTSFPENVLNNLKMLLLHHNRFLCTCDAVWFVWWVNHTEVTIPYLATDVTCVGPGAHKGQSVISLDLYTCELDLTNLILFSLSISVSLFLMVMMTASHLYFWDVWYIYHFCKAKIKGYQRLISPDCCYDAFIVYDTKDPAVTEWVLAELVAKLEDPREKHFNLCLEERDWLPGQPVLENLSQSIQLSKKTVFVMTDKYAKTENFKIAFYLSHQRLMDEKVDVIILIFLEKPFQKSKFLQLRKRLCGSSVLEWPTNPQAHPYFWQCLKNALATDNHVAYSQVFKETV
Protocol: This procedure describes a method for assaying human TLR7 (hTLR7) agonist activity of the compounds disclosed in this specification.
HEK-Blue™ TLR7 cells were added to each well of a 384-well tissue-culture plate (15,000 cells per well) and incubated 16-18 h at 37° C., 5% CO2. Compounds (100 nl) were dispensed into wells containing the HEK-Blue™ TLR cells and the treated cells were incubated at 37° C., 5% CO2. After 18 h treatment ten microliters of freshly-prepared Quanti-Blue™ reagent (Invivogen) was added to each well, incubated for 30 min (37° C., 5% CO2) and SEAP levels measured using an Envision plate reader (OD=620 nm). The half maximal effective concentration values (EC50; compound concentration which induced a response halfway between the assay baseline and maximum) were calculated.

SMILES	EC50
CCCCNc1nc(N)nc2cnn(Cc3ncc(C4CCN(Cc5ncn(C)n5)CC4)cc3OC)c12 [Compound 217, N7-butyl-1-[(3-methoxy-5-{1-[(1-methyl-1H-1,2,4-triazol-3-yl)methyl]piperidin-4-yl}pyridin-2-yl)methyl]-1H-pyrazolo[4,3-d]pyrimidine-5,7-diamine]	80.1 nM
CCCCNc1nc(N)nc2cnn(Cc3ncc(C4CCN(CC5CCOCC5)CC4)cc3OC)c12 [Compound 218, N7-butyl-1-[(3-methoxy-5-{1-[(oxan-4-yl)methyl]piperidin-4-yl}pyridin-2-yl)methyl]-1H-pyrazolo[4,3-d]pyrimidine-5,7-diamine]	25.9 nM
CCCCNc1nc(N)nc2cnn(Cc3cnc(C4CCN(C5CCOCC5)CC4)cc3OC)c12 [Compound 219, N7-butyl-1-({4-methoxy-6-[1-(oxan-4-yl)piperidin-4-yl]pyridin-3-yl}methyl)-1H-pyrazolo[4,3-d]pyrimidine-5,7-diamine]	21.9 nM
CCC[C@@H](CCO)Nc1nc(N)nc2c(C)nn(Cc3cnc(C4CCN(CC#N)CC4)cc3OC)c12 [Compound 220, 2-(4-{5-[(5-amino-7-{[(3S)-1-hydroxyhexan-3-yl]amino}-3-methyl-1H-pyrazolo[4,3-d]pyrimidin-1-yl)methyl]-4-methoxypyridin-2-yl}piperidin-1-yl)acetonitrile]	436 nM
CCC[C@@H](CCO)Nc1nc(N)nc2c(C)nn(Cc3cnc(C4CCNCC4)cc3OC)c12 [Compound 221, (3S)-3-[(5-amino-1-{[4-methoxy-6-(piperidin-4-yl)pyridin-3-yl]methyl}-3-methyl-1H-pyrazolo[4,3-d]pyrimidin-7-yl)amino]hexan-1-ol]	57.1 nM
CCC[C@@H](CCO)Nc1nc(N)nc2c(C)nn(Cc3cnc(C4CCN(C5CCOCC5)CC4)cc3OC)c12 [Compound 222, (3S)-3-{[5-amino-1-({4-methoxy-6-[1-(oxan-4-yl)piperidin-4-yl]pyridin-3-yl}methyl)-3-methyl-1H-pyrazolo[4,3-d]pyrimidin-7-yl]amino}hexan-1-ol]	170 nM
